The text below walks through data of patent US20230135635A1, “INHIBITORS OF ULK1/2 AND METHODS OF USING SAME” (SALK INSTITUTE FOR BIOLOGICAL STUDIES, priority 2020, published 2023).

As a reminder, the IC50 is the point on the concentration scale where inhibition reaches its midpoint.

A value given as a limit tells only on which side of the number the result lay.

The first experiment deals with T1, recombinant human ULK1 protein (1-649) (Homo sapiens, UniProt O75385).
T1 construct: recombinant human ULK1 protein (1-649, SignalChem #U01-11G); purchased SignalChem U01-11G
T1 sequence (O75385 1-649): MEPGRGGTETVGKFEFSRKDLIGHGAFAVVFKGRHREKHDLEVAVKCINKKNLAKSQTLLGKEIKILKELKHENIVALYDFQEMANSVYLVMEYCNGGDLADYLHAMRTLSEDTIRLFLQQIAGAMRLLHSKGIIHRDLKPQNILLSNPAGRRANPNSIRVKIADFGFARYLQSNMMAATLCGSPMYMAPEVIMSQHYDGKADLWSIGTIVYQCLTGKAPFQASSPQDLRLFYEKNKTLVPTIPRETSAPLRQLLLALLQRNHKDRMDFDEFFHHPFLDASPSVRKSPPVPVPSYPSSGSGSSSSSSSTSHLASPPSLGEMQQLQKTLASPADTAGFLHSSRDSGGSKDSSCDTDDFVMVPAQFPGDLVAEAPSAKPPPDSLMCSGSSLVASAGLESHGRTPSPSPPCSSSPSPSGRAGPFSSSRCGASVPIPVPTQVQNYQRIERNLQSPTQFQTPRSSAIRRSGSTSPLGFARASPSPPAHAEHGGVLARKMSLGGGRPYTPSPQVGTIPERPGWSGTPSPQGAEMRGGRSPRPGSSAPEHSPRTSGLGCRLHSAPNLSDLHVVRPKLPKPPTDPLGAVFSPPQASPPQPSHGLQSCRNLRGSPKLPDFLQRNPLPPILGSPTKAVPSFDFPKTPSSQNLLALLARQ
Kind of experiment: ULK1 inhibition assay (ADP Glo). The note with it: Table 1; 25 uM ATP, MBP substrate, one hour. The class given is biochemical. Put shortly: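 Recombinant ULK1 (2 ug/mL) phosphorylated myelin basic protein (80 ug/mL) at 25 uM ATP; ADP formed was detected by ADP-Glo after 1 h. Compounds ran in triplicate, 16-dose 3-fold serial dilution from 30 uM, to give IC50.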
(ADP-Glo turns the ADP formed in a reaction into a luminescent signal.)
Consider `CNC(=O)c1ccccc1Nc1nc(Nc2ccc3c(c2)C[N+](C)(C)CC3)ncc1Br` [Compound A168, 7-[5-Bromo-4-(2-methylcarbamoyl-phenylamino)-pyrimidin-2-ylamino]-2,2-dimethyl-1,2,3,4-tetrahydro-isoquinolinium; iodide], for which the IC50 is more than 10 nM. The same measure, in the same setting: as for `CC(O)CN1CCc2cc(Nc3ncc(C(F)(F)F)c(NC4CC4)n3)ccc2C1` (centres unmarked) [Compound A70], the figure is less than 1 nM; as for `CNC(=O)c1ccccc1Nc1nc(Nc2ccc3c(c2)CC[N+](C)(C)C3)ncc1Br` [Compound A143, 6-[5-Bromo-4-(2-methylcarbamoyl-phenylamino)-pyrimidin-2-ylamino]-2,2-dimethyl-1,2,3,4-tetrahydro-isoquinolinium; iodide], more than 10 nM; as for `O=C(CN1CCOCC1)N1CCc2cc(Nc3ncc(C(F)(F)F)c(NC4CC4)n3)ccc2C1` [Compound A115], 1 to 10 nM. For `FC(F)(F)c1cnc(Nc2ccc3c(c2)CN(Cc2c[nH]cn2)CC3)nc1NC1CC1` [Compound A105], the IC50 was 1 to 10 nM. On the same count and under the same terms, as for `CNC(=O)c1ccccc1Nc1nc(Nc2ccc3c(c2)CN(Cc2ccc(OC)cc2)CC3)ncc1Br` [Compound A158, 2-{5-Bromo-2-[2-(4-methoxy-benzyl)-1,2,3,4-tetrahydro-isoquinolin-7-ylamino]-pyrimidin-4-ylamino}-N-methyl-benzamide], the figure is more than 10 nM; as for `CNC(=O)c1ccccc1Nc1nc(Nc2ccc3c(c2)CNCC3)ncc1Br` [Compound A147, 2-[5-Bromo-2-(1,2,3,4-tetrahydro-isoquinolin-7-ylamino)-pyrimidin-4-ylamino]-N-methyl-benzamide], more than 10 nM; as for `FC(F)(F)c1cnc(Nc2ccc3c(c2)CCN(Cc2cc[nH]c2)C3)nc1NC1CC1` [Compound A42], less than 1 nM. In the case of `FC(F)(F)c1cnc(Nc2ccc3c(c2)CN(Cc2ccncn2)CC3)nc1NC1CC1` [Compound A109], the IC50 is less than 1 nM. For the molecule `FC(F)(F)c1cnc(Nc2ccc3c(c2)CCN(Cc2ccncc2)C3)nc1NC1CC1` [Compound A3], the IC50 is less than 1 nM. On the same count and under the same terms, the same measure for `COC(=O)N1CCc2cc(Nc3ncc(C(F)(F)F)c(NC4CC4)n3)ccc2C1` [Compound A4]: 1 to 10 nM; for `CCOC(=O)c1cnc(Nc2ccc3c(c2)CCN(C(=O)OC(C)(C)C)C3)nc1NC1CC1` [Compound A28]: more than 10 nM; for `CNC(=S)Nc1cnc(Nc2ccc3c(c2)CCNC3)nc1NC1CC1` [Compound A24]: more than 10 nM. Same read-out and setting: as for `CNC(=O)c1ccccc1Nc1nc(Nc2ccc3c(c2)CN(C(=O)[C@@H](N)CO)CC3)ncc1Br` (racemic) [Compound A154, 2-{2-[2-(2-Amino-3-hydroxy-propionyl)-1,2,3,4-tetrahydro-isoquinolin-7-ylamino]-5-bromo-pyrimidin-4-ylamino}-N-methyl-benzamide], the figure is more than 10 nM. Still for that read-out and setting: the same measure for `CS(=O)(=O)CCN1CCc2cc(Nc3ncc(C(F)(F)F)c(NC4CC4)n3)ccc2C1` [Compound A91]: 1 to 10 nM; for `FC(F)(F)c1cnc(Nc2ccc3c(c2)CN(CC2OCCO2)CC3)nc1NC1CC1` [Compound A79]: 1 to 10 nM; for `CNCC(=O)N1CCc2cc(Nc3ncc(Br)c(Nc4ccccc4C(=O)NC)n3)ccc2C1` [Compound A133, 2-{5-Bromo-2-[2-(2-methylamino-acetyl)-1,2,3,4-tetrahydro-isoquinolin-6-ylamino]-pyrimidin-4-ylamino}-N-methyl-benzamide]: more than 10 nM. As for `CNC(=O)c1ccccc1Nc1nc(Nc2ccc3c(c2)CN(C)CC3)ncc1Br` [Compound A167, 2-[5-Bromo-2-(2-methyl-1,2,3,4-tetrahydro-isoquinolin-7-ylamino)-pyrimidin-4-ylamino]-N-methyl-benzamide], the IC50 is more than 10 nM. Still for that read-out and setting: the same measure for `FC(F)(F)c1cnc(Nc2ccc3c(c2)CN(Cc2ccccc2)CC3)nc1NC1CC1` [Compound A95]: more than 10 nM; for `CNC(=O)c1ccccc1Nc1nc(Nc2ccc3c(c2)CCN(S(N)(=O)=O)C3)ncc1Br` [Compound A140, 2-[5-Bromo-2-(2-sulfamoyl-1,2,3,4-tetrahydro-isoquinolin-6-ylamino)-pyrimidin-4-ylamino]-N-methyl-benzamide]: more than 10 nM. Still for that read-out and setting: the same measure for `CN1CCN(C(=O)N2CCc3cc(Nc4ncc(C(F)(F)F)c(NC5CC5)n4)ccc3C2)CC1` [Compound A37]: less than 1 nM.

The experiment is the same for the next values; noted with them: Table 2.
In the case of `COC(=O)c1ccccc1Oc1nc(Nc2ccc(C(N)=O)cc2)ncc1Br` [Compound B41], the IC50 was more than 1000 nM. On to `COc1cc(Nc2ncc(Br)c(Oc3ccccc3C(=O)NCCC#N)n2)cc(OC)c1OC` [Compound B10], for which the IC50 was more than 1000 nM. On the same count and under the same terms, the same measure for `COC(=O)c1ccccc1Oc1nc(Nc2cccc(OC(F)F)c2)ncc1Br` [Compound B29]: more than 1000 nM. On the same count and under the same terms, the same measure for `COC(=O)c1ccccc1Oc1nc(Nc2ccc(N(C)C)cc2)ncc1Br` [Compound B24]: 100 to 1000 nM. Same read-out and setting: as for `COC(=O)c1ccccc1Oc1nc(Nc2ccc3c(c2)COC3)ncc1Br` [Compound B33], the figure is more than 1000 nM; as for `COC(=O)c1ccccc1Oc1nc(Nc2ccc(OC)c(OC)c2)ncc1Br` [Compound B17], more than 1000 nM; as for `COC(=O)c1ccccc1Oc1nc(Nc2ccc(C(F)(F)F)cc2)ncc1Br` [Compound B42], more than 1000 nM.

Staying with this experiment, now noted: Table 3.
As for `CNC(=O)c1cccc(Nc2nc(Nc3cc(OC)c(OC)c(OC)c3)ncc2Br)c1` [Compound E26, 3-((5-Bromo-2-((3,4,5-trimethoxyphenyl)amino)pyrimidin-4-yl)amino)-N-methylbenzamide], the IC50 is more than 100 nM.

In the case of `CNC(=O)c1ccccc1Nc1nc(Nc2ccc(N3CCNCC3)cc2)ncc1Br` [Compound E24, 2-((5-Bromo-2-((4-(piperazin-1-yl)phenyl)amino)pyrimidin-4-yl)amino)-N-methylbenzamide], the IC50 lay within 5 to 100 nM. Take `O=C(Nc1ccc(Nc2ncc(Br)c(Nc3ccccc3CO)n2)cc1)C1CC1` [Compound C12]: the IC50 was less than 5 nM. With `OCc1ccccc1Nc1nc(Nc2ccc(OC(F)F)cc2)ncc1Br` [Compound C8], the IC50 was 5 to 100 nM. Still for that read-out and setting: as for `O=C(NCc1ccc(Nc2ncc(C(F)(F)F)c(NC3CC3)n2)cc1)OCc1ccccc1` [Compound D2], the figure is less than 5 nM. Consider `COc1cc(Nc2nccc(Nc3ccccc3CN)n2)cc(OC)c1OC` [Compound C13], for which the IC50 was more than 100 nM. As for `CN1CCN(c2ccc(Nc3ncc(Br)c(Nc4ccccc4CO)n3)cc2)CC1` [Compound C9], the IC50 was less than 5 nM. In the case of `COc1cc(Nc2ncc(Br)c(Oc3ccccc3CO)n2)cc(OC)c1OC` [Compound C1], the IC50 is more than 100 nM.

As for `COc1cc(Nc2ncc(Br)c(Nc3ccccc3CNC3CC3)n2)cc(OC)c1OC` [Compound C24], the IC50 is more than 100 nM. Take `COc1cc(Nc2ncc(C(F)(F)F)c(Nc3ccccc3CO)n2)cc(OC)c1OC` [Compound C3]: the IC50 was less than 5 nM. Still for that read-out and setting: as for `COc1cc(Nc2ncc(Br)c(Nc3ccccc3CN(C)CCO)n2)cc(OC)c1OC` [Compound C23], the figure is more than 100 nM. Still for that read-out and setting: as for `C#CCN1CCN(c2ccc(Nc3ncc(Br)c(Nc4ccccc4C(=O)NC)n3)cc2)CC1` [Compound E25, 2-((5-Bromo-2-((4-(4-(prop-2-yn-1-yl)piperazin-1-yl)phenyl)amino)pyrimidin-4-yl)amino)-N-methylbenzamide], the figure is 5 to 100 nM; as for `COc1cc(Nc2ncc(Br)c(Nc3ccccc3COCC(=O)N(C)C)n2)cc(OC)c1OC` [Compound C19], more than 100 nM.
